# Patent US11247973B2 (The University of Durham, priority 2016, dated 2022)
# Read-outs that look alike come from different tables or passages of the source.
# Assays:
# [1] = system: RSV; test: Cytopathic effect (CPE) assay; format: cell-based; settings: human respiratory syncytial virus; A549 cells and HeLa cells, 6-8 days, DMEM+2% FCS; read-out: CPE IC50
# Text: Cells were obtained from ATCC and the virus preparation was subjected to one round of centrifugation through a 40% (V/V) glycerol to remove any interferon produced from infected cells. Growth medium was Dulbecco's modified Eagle's medium (DMEM) with 10% (v/v) foetal calf serum (FCS), Viral maintainance medium was DMEM+2% (v/v) FCS.
# Cytopathic Effect (CPE) Assay—IC50:
# A549 cells and HeLa cells were used to seed a set of 96 well plates grown until 50% confluent, a 2 fold serial dilution of the compound was performed on each cell line with DMSO (only) as control starting with 100 μM of the compound. Medium used was DMEM+2% FCS (normal medium for viral growth).
# Cells were allowed to grow for 6-8 days to mimic a TCID50 assay after which cell viability was determined by adding Almar blur (similar to XT) and reading at 600 nm (excitation 540 nm).
# [2] = system: RSV; test: Plaque reduction assay in Vero cells (standard and time of addition); format: cell-based; settings: human respiratory syncytial virus
# [3] = Microsomal clearance, human; format: in vitro ADME; settings: both, pooled liver microsomes
# Description: Pooled human liver microsomes (pooled male and female), pooled rat liver microsomes (male Sprague Dawley rats) and pooled dog liver microsomes (male Beagle dog) are purchased from a reputable commercial supplier and stored at −80° C. prior to use.
# Microsomes (final protein concentration 0.5 mg/mL), 0.1 M phosphate buffer pH 7.4 and compound 2 (final substrate concentration 3 μM; final DMSO concentration 0.25%) are pre-incubated at 37° C. prior to the addition of NADPH (final concentration 1 mM) to initiate the reaction. The final incubation volume is 50 μL. A control incubation is included for each compound tested where 0.1 M phosphate buffer pH 7.4 is added instead of NADPH (minus NADPH). Two control compounds are included with each species. All incubations are performed singularly for each test compound.
# Compounds are incubated for 0, 5, 15, 30 and 45 min. The control (minus NADPH) is incubated for 45 min only. The reactions are stopped by transferring 25 μL of incubate to 50 μL methanol at the appropriate time points. […] Following protein precipitation, the sample supernatants are combined in cassettes of up to 4 compounds, internal standard is added and samples analysed by LC-MS/MS. From a plot of ln peak area ratio (compound peak area/internal standard peak area) against time, the gradient of the line is determined.
# [4] = system: MDR1; test: MDR1-MDCK permeability assay; format: in vitro ADME; settings: dog
# Description: (§1) MDR1-MDCK cells obtained from the NIH (Rockville, Md., USA) are used between passage numbers 6-30. Cells are seeded onto Millipore Multiscreen Transwell plates at 3.4×10^5 cells/cm^2. The cells are cultured in DMEM and media is changed on day 3. On day 4 the permeability study is performed. Cell culture and assay incubations are carried out at 37° C. in an atmosphere of 5% CO2 with a relative humidity of 95%. On the day of the assay, the monolayers are prepared by rinsing both basolateral and apical surfaces twice with Hanks Balanced Salt Solution (HBSS) at the desired pH warmed to 37° C. Cells are then incubated with HBSS at the desired pH in both apical and basolateral compartments for 40 min to stabilise physiological parameters.
# (§2) The dosing solutions are prepared by diluting compound 2 with assay buffer to give a final compound 2 concentration of 10 μM (final DMSO concentration of 1% v/v). The fluorescent integrity marker lucifer yellow is also included in the dosing solution. Analytical standards are prepared from test compound DMSO dilutions and transferred to buffer, maintaining a 1% v/v DMSO concentration.
# (§3) For assessment of A-B permeability, HBSS is removed from the apical compartment and replaced with compound 2 dosing solution. The apical compartment insert is then placed into a companion plate containing fresh buffer (containing 1% v/v DMSO). For assessment of B-A permeability, HBSS is removed from the companion plate and replaced with compound 2 dosing solution. Fresh buffer (containing 1% v/v DMSO) is added to the apical compartment insert, which is then placed into the companion plate.
# (§4) At 60 min the apical compartment inserts and the companion plates are separated and apical and basolateral samples diluted for analysis.
# (§5) Compound 2 permeability is assessed in duplicate. Compounds of known permeability characteristics are run as controls on each assay plate.
# (§6) Compound 2 and control compounds are quantified by LC-MS/MS cassette analysis using an 8-point calibration with appropriate dilution of the samples. The starting concentration (Co) is determined from the dosing solution and the experimental recovery calculated from Co and both apical and basolateral compartment concentrations.
# (§7) The integrity of the monolayer throughout the experiment is checked by monitoring lucifer yellow permeation using fluorimetric analysis. Lucifer yellow permeation is high if monolayers have been damaged.
# [5] = system: MDR1-MDCK cells; test: MDR1-MDCK permeability assay; format: in vitro ADME
# Description: as §1, §2, §3, §4, §5, §6, §7
# [6] = Mouse in vivo pharmacokinetic assay; set-up: species or system male CD-1 mice
# Description: Pharmacokinetic evaluation of compound 2 was performed in male CD-1 mice following intravenous (IV) and oral (PO) administration. For intravenous administration the compound was formulated in solution in 40:60 DMA:saline and was administered at 1 mg/kg via the tail vein. For oral administration the compound was formulated in suspension in water containing 1% methylcellulose and 0.1% Tween80, and was administered at 10 mg/kg by oral gavage. Blood samples were taken by cardiac puncture under terminal anaesthesia (isoflurane) at ten timepoints between 1 minute and 24 hours following IV administration, and at nine timepoints between 5 minutes and 24 hours following PO administration (n=3 per timepoint). Plasma was immediately obtained by centrifugation, and the resulting samples frozen until analysis. Samples, along with a calibration curve prepared by spiking the compound into control plasma, were subsequently prepared for quantitative analysis by precipitation of plasma proteins with acetonitrile. Analysis was by ultra high performance liquid chromatography (Agilent 1290 system) coupled to time of flight mass spectrometry, using electrospray ionisation (Agilent 6550 system). Pharmacokinetic parameters were determined by non-compartmental analysis of mean concentration data using Phoenix WinNonlin v6.4.
smiles,measurement,setting,value
O=C(CNc1c(F)c(F)nc(F)c1F)N[C@H]1N=C(c2ccccc2)c2ccccc2NC1=O [Compound 2],IC50,[1],0.625 µM
same,IC50,"[2]; compound added during infection only, read-out: Plaque IC50 (during infection only)",10.9 µM
same,IC50,"[2]; compound added post infection only, read-out: Plaque IC50 (post infection only)",2 µM
same,IC50,"[2]; standard plaque reduction assay, read-out: Plaque IC50",1.1 µM
same,microsomal CLint at 3 μM,"[3]; pH 7.4, 0.5 mg/mL protein, read-out: Intrinsic clearance - human",52.6 µL/min/mg
same,half-life at 3 μM,"[3]; pH 7.4, read-out: t½ - human",26.3 min
same,"Papp A→B at 60 min, 10 μM","[4]; 10 μM, 60 min, read-out: Permeability A2B",0.553 ×10⁻⁶ cm/s
same,"Papp B→A at 60 min, 10 μM","[4]; 10 μM, 60 min, read-out: Permeability B2A",76.3 ×10⁻⁶ cm/s
same,"efflux ratio at 60 min, 10 μM",[4]; read-out: Efflux ratio B2A/A2B,138
same,Permeability assessment in words,[5],permeable compound but with a susceptibility for an efflux mechanism
same,Pharmacokinetic assessment in words,[6]; IV and PO,orally bioavailable with moderate clearance
same,F,[6]; PO 10 mg/kg vs IV 1 mg/kg,54.8%
same,Vd,"[6]; male, CD-1, plasma, IV 1 mg/kg",3.65 L/kg
same,clearance,"[6]; male, CD-1, plasma, IV 1 mg/kg",63.1 mL/min/kg
same,half-life,"[6]; male, CD-1, plasma, IV 1 mg/kg, read-out: IV t½",59 min
same,Cmax,"[6]; male, CD-1, plasma, PO 10 mg/kg",349 ng/mL
same,half-life,"[6]; male, CD-1, plasma, PO 10 mg/kg, read-out: PO t½",132 min
